Legend:
Format in all cases: in vivo
[1] = tested on: Stellaria media (STEME); assay: B. Herbicidal post-emergence efficacy, STEME
Summary of the method: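 First, seeds were sown in sandy loam and grown 2 to 3 weeks under controlled greenhouse conditions. Next, foliage at the one-leaf stage received the formulated compound in water with 0.5% additive (600 L/ha, 1280 g/ha or less). Finally, damage was rated visually after about 3 weeks against untreated plants.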

[2] = tested on: Lolium rigidum (LOLRI); assay: B. Herbicidal post-emergence efficacy, LOLRI
Procedure: Seeds of mono- and dicotyledonous weed plants were placed in plastic pots in sandy loam soil (doubly sown with in each case one species of mono- or dicotyledonous weed plants per pot), covered with soil and cultivated in a greenhouse under controlled growth conditions. 2 to 3 weeks after sowing, the test plants were treated at the one-leaf stage. The compounds of the invention, formulated in the form of wettable powders (WP) or as emulsion concentrates (EC), were applied onto the green parts of the plants as aqueous suspension or emulsion with addition of 0.5% additive at a water application rate of 600 liters per hectare (converted). After the test plants had been kept in the greenhouse under optimum growth conditions for about 3 weeks, the activity of the preparations was rated visually in comparison to untreated controls.
For example, • 100% efficacy=plants have died, • 0% efficacy=like untreated control plants
Tables B1a to B12c below show the effects of selected inventive compounds of the general formula (I) according to table 1 on various harmful plants at an application rate corresponding to 1280 g/ha or less, which were obtained by the experimental procedure mentioned above.

[3] = tested on: Amaranthus retroflexus (AMARE); assay: E. Herbicidal post-emergence efficacy, AMARE
Summary of the method: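 Visual scoring against untreated plants was done roughly 3 weeks after spraying (0% = no effect, 100% = plants dead). Spray application at 320 g/ha or lower, 600 l/ha water with 0.5% additive, was made onto green parts of one-leaf-stage greenhouse plants grown 2-3 weeks in sandy loam.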

[4] = tested on: Zea mays (ZEAMX); assay: D. Pre-emergence effect on useful plants, ZEAMX; conditions: useful plant
Summary of the method: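 Seeds sown in pots and covered with soil; WP or EC formulations sprayed on the soil surface as aqueous suspension/emulsion with 0.5% additive at 600 l/ha water. Plants grown in greenhouse; crop damage scored visually after about 3 weeks as % versus untreated controls (100% = dead, 0% = like control).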

[5] = tested on: Pharbitis purpurea (PHBPU); assay: C. Herbicidal pre-emergence efficacy, PHBPU; conditions: scored after about 3 weeks
From the text: Seeds of monocotyledonous and dicotyledonous weed plants and crop plants were placed in plastic or organic planting pots and covered with soil. The compounds of the invention, formulated in the form of wettable powders (WP) or as emulsion concentrates (EC), were then applied to the surface of the covering soil as aqueous suspension or emulsion with addition of 0.5% additive at a water application rate equivalent to 600 l/ha (converted). After the treatment, the pots were placed in a greenhouse and kept under good growth conditions for the test plants. After about 3 weeks, the efficacy of the preparations was scored visually in comparison with untreated controls as percentages. For example, • 100% efficacy=plants have died, • 0% efficacy=like untreated control plants.
Tables C1a to C14b below show the effects of selected compounds of the general formula (I) according to table 1 on various harmful plants at an application rate corresponding to 320 g/ha or less, which were obtained by the experimental procedure mentioned above.

[6] = tested on: Digitaria sanguinalis (DIGSA); assay: E. Herbicidal post-emergence efficacy, DIGSA
Procedure: (§1) Seeds of monocotyledonous and dicotyledonous weeds and crop plants were placed in sandy loam in plastic or organic planting pots, covered with soil and cultivated in a greenhouse under controlled growth conditions. 2 to 3 weeks after sowing, the test plants were treated at the one-leaf stage. The compounds of the invention, formulated in the form of wettable powders (WP) or as emulsion concentrates (EC), were then sprayed onto the green parts of the plants as aqueous suspension or emulsion with addition of 0.5% additive at a water application rate of 600 l/ha (converted). After the test plants had been kept in the greenhouse under optimum growth conditions for about 3 weeks, the activity of the preparations was rated visually in comparison to untreated controls.
(§2) For example, • 100% efficacy=plants have died, • 0% action=like untreated control plants.
(§3) Tables E1a to E12b below show the effects of selected compounds of the general formula (I) according to table 1 on various harmful plants at an application rate corresponding to 320 g/ha or less, which were obtained by the experimental procedure mentioned above.

[7] = tested on: Zea mays (ZEAMX); assay: F. Post-emergence effect on useful plants, ZEAMX; conditions: useful plant
Summary of the method: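 Visual efficacy rating versus untreated plants, from 0% (no effect) to 100% (plants died), made about 3 weeks after post-emergence treatment. Formulated compounds (WP or EC, 0.5% additive, 600 l/ha water) were sprayed onto greenhouse-grown crops at the one-leaf stage, 2-3 weeks after sowing.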

[8] = tested on: Kochia scoparia (KCHSC); assay: C. Herbicidal pre-emergence efficacy, KCHSC
Summary of the method: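 Pre-emergence test: formulated compounds sprayed as aqueous suspension or emulsion with 0.5% additive at 600 l/ha onto soil covering sown seeds, at rates corresponding to 320 g/ha or less. After about 3 weeks in greenhouse, efficacy scored visually as percent versus untreated controls (100% = plants dead).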

[9] = tested on: Alopecurus myosuroides (ALOMY); assay: E. Herbicidal post-emergence efficacy, ALOMY; conditions: application rate 320 g/ha
Procedure: as §1, §2, §3

Row | Compound | Post-emergence efficacy against STEME ([1]; 80 g/ha) | Post-emergence efficacy against STEME ([1]; 320 g/ha) | Post-emergence efficacy against STEME ([1]; 1280 g/ha) | Post-emergence efficacy against LOLRI ([2]; 320 g/ha) | Post-emergence efficacy against LOLRI ([2]; 1280 g/ha) | Post-emergence efficacy against AMARE in % ([3]; application rate 80 g/ha) | Post-emergence efficacy against AMARE in % ([3]; application rate 320 g/ha) | Pre-emergence efficacy against ZEAMX in % ([4]; application rate 80 g/ha) | Pre-emergence efficacy against PHBPU ([5]; 320 g/ha) | Post-emergence efficacy against DIGSA in % ([6]; application rate 80 g/ha) | Post-emergence efficacy against DIGSA in % ([6]; application rate 320 g/ha) | Post-emergence efficacy against ZEAMX in % ([7]; application rate 80 g/ha) | Pre-emergence efficacy against ZEAMX in % ([4]; application rate 320 g/ha) | Pre-emergence efficacy against KCHSC in % ([8]; application rate 80 g/ha) | Pre-emergence efficacy against KCHSC in % ([8]; application rate 320 g/ha) | Post-emergence efficacy against ALOMY in % [9] | Pre-emergence efficacy against PHBPU ([5]; 80 g/ha) | Post-emergence efficacy against ZEAMX in % ([7]; application rate 320 g/ha)
1 | Cc1cccc(OS(=O)(=O)CCCCl)c1Oc1ncc(Cl)cn1 [Example I-12] | 90% | 90% | 100% | 90% | 90% | 90% | 90% | 20% |  |  |  |  |  |  |  |  |  | 
2 | O=S(=O)(CCCCCl)Oc1ccccc1Oc1ncc(Cl)cn1 [Example I-15] | 100% | 100% | 100% | 90% | 90% | 100% | 100% |  | 90% | 80% | 90% |  |  |  |  |  |  | 
3 | CCCCCS(=O)(=O)Oc1ccccc1Oc1ncc(Cl)cn1 [Example I-24] | 90% | 90% | 100% |  | 90% | 90% | 100% | 0% |  |  |  | 20% | 0% |  |  |  |  | 
4 | CC(C)CCS(=O)(=O)Oc1ccccc1Oc1ncc(Cl)cn1 [Example I-25] | 90% | 100% | 100% |  | 90% |  | 90% | 0% |  |  |  |  |  |  |  |  |  | 
5 | Cc1cccc(Oc2ncc(Cl)cn2)c1OS(=O)(=O)CCC(F)(F)F [Example I-29] | 90% | 100% | 100% |  | 90% |  |  |  |  |  |  |  |  |  |  |  |  | 
6 | O=S(=O)(CCC(F)(F)F)Oc1c(Cl)cccc1Oc1ncc(Br)cn1 [Example I-32] | 100% | 100% | 100% |  | 90% | 100% | 100% |  |  |  | 90% | 20% |  | 100% | 100% |  |  | 
7 | O=S(=O)(CCC(F)(F)F)Oc1c(Cl)cccc1Oc1ncc(Cl)cn1 [Example I-38] | 90% | 90% | 90% |  | 90% | 100% | 100% |  |  |  | 90% |  |  | 100% | 100% | 80% |  | 
8 | O=S(=O)(CCCC(F)(F)F)Oc1c(F)cccc1Oc1ncc(Br)cn1 [Example I-41] | 90% | 90% | 90% |  | 90% | 100% | 100% |  | 100% | 100% | 100% | 0% |  | 100% | 100% | 100% | 80% | 20%
9 | O=S(=O)(CCCC(F)(F)F)Oc1c(F)cccc1Oc1ncc(Cl)cn1 [Example I-49] | 90% | 90% | 90% |  | 90% | 100% | 100% |  | 100% | 90% | 100% |  |  | 100% | 100% | 80% | 90% | 
10 | COCCS(=O)(=O)Oc1c(F)cccc1Oc1ncc(Cl)cn1 [Example I-52] |  |  | 90% |  | 90% |  | 100% | 0% |  |  |  | 0% |  | 100% | 100% |  |  | 0%
11 | O=S(=O)(CCC(F)=C(F)F)Oc1c(Cl)cccc1Oc1ncc(Cl)cn1 [Example I-73] | 90% | 100% | 100% |  | 90% | 80% | 100% |  |  |  |  | 20% |  |  | 100% |  |  | 
12 | Cc1cccc(Oc2ncc(Cl)cn2)c1OS(=O)(=O)CC1CC(F)(F)C1 [Example I-74] | 100% | 100% | 100% |  | 100% | 90% | 100% | 0% |  |  |  | 0% |  |  | 90% |  |  | 

Source: patent US20240174618A1, “SUBSTITUTED (2-HETEROARYLOXYPHENYL)SULFONATES, SALTS THEREOF AND THEIR USE AS HERBICIDAL AGENTS” (Bayer Aktiengesellschaft, priority 2021, published 2024)
